Like-named read-outs stand apart in the source and are kept apart here.
Experiment: In vivo pharmacokinetics in SD rats
Conditions: for AUC(0-t): read-out: AUC(0-24); for half-life / bioavailability: rat, plasma; for bioavailability: oral, rats, intragastric 20 mg/kg vs iv 2 mg/kg
Protocol: SD rats, male, 4-6 weeks old, weighing 200-220 g, the total number is 12, were purchased from Shanghai Slac laboratory animal limited liability company, animal production license number: SCXK (Shanghai) 2008-0016, the experimental animals using license number: SCXK (Shanghai) 2007-0005, certificate number: 2007000514232.
SD rats were randomly divided into two groups, numbered A and B, while 6 rats in each group, before the experiment starts, the rats were fasted 12 hours overnight, group A were tail vein injected with compound 9 by dose 2 mg/kg; group B were intragastric administrated with Compound 9 suspensions, of which the dose was calculated as 20 mg/kg;
Group A: tail intravenous injection (i.v.) administrated compound 9. Orbital blood 0.3 mL was taken on 0, 5, 10, 15, 30, 45, 60 min, 2 h, 3 h, 4 h, 6 h, 8 h, 12 h, and was placed in 1.5 mL EP tube coated with heparin, shaked up and down for 3 times, centrifuged at 3500 rpm for 5 min to get supernatant, and was kept in refrigerator at −20° C. to save backup;
Dose was 2 mg/kg (2.6 mL/kg), administered in a concentration of 770 μg/mL, which was dissolved with mixed aqueous solution of 9.4% ethanol and 24.5% isopropanol;
Group B: intragastric administration (i.g.), dose of 20 mg/kg, administered in a concentration of 1.5 mg/mL, and 3.75% Tween 80 was used to dissolve compound 9, gavage dose was (13.3 mL/kg);
Orbital blood 0.5 mL was taken at 0, 5, 10, 15, 30, 45, 60 min, 2 h, 3 h, 4 h, 6 h, 8 h, 12 h, 24 h, and was placed in 1.5 mL EP tube coated with heparin, shaked up and down for 3 times, centrifuged at 3500 rpm for 5 min to get supernatant, and kept in refrigerator at −20° C. to save backup.
Plasma sample 100 μL was precisely measured, put in 1.5 mL plastic centrifuge tube, 10 μL methanol and 190 μL methanol solution of compound 17 (internal standard) of 100.8 ng·mL^−1 were added, vortex mixed for 30 s, centrifuged at 12000r·min^−1 for 10 min, 200 μL supernatant was taken and put into the vial, 5 μL injected for HPLC-MS analysis.
Analytical conditions: column: SHISEIDO MG-C18 (100 mm×3.0 mm, 3.0 μm), mobile phase: acetonitrile: water (containing 0.1% formic acid=25:75 (V/V); flow rate: 0.8 mL·min^−1 analysis time 6 min, column temperature: 25° C., the injection volume: 5 μL, split ratio 2:1. The mass was in ESI source positive ion mode, the capillary voltage was 4000V, drying flow rate was 10 L/min, the atomizing air pressure was 40 psi, temperature of the drying gas was 350° C. Selective ion mode (SIM), the ion of compound 9 was [M+H] ions+m/z 561.2 and that of the internal standard compound 17 [M+H]+m/z 591.2, and the debris voltage was 70 eV.
The data gained were substituted into the accompanying standard curve, thus obtaining the drug concentration in rat plasma.
The pharmacokinetic parameters were analyzed by using non-compartmental model, the peak concentration Cmax and peak time Tmax were taken Found value, and the pharmacokinetic parameters were processed to obtain the pharmacokinetic parameters result of single dose.

[1] = male, SD, iv, rat plasma, tail vein injection, 2 mg/kg
[2] = male, SD, po, rat plasma, intragastric administration, 20 mg/kg
[3] = rat plasma, intragastric administration, 20 mg/kg
[4] = rat plasma, tail vein injection, 2 mg/kg

COc1ncc(-c2ccc3nccc(-c4ccc(CN(C)C)cc4)c3c2)cc1NS(=O)(=O)c1ccc(F)cc1F [Compound 9, N-(5-(4-(4-((dimethylamine)methyl)phenyl)quinolin-6-yl)-2-methoxypyridine-3-yl)-2,4-difluorobenzenesulfonamide] showed an AUC [1] of 3740 ng·h/mL, a Cmax [1] of 999 ng/mL and an MRT [1] of 8.54 h. The Vd [1] was 5.05 L/kg, the clearance [1] was 8.92 mL/min/kg and the AUC(0-t) [1] was 3450 ng·h/mL. It also gave an AUC [2] of 35600 ng·h/mL, a Cmax [2] of 7120 ng/mL and an MRT [2] of 6.46 h. It also gave a Tmax [2] of 0.5 h, an AUC(0-t) [2] of 34100 ng·h/mL and a half-life (male, SD, iv, 2 mg/kg, rat plasma, tail vein injection) of 6.55 h. It also gave a bioavailability (male, SD, 20 mg/kg, read-out: Absolute bioavailability F0-t) of 98.8%, a bioavailability (male, SD, 20 mg/kg, read-out: Absolute bioavailability F0-∞) of 95.2% and a half-life (male, SD, po, 20 mg/kg, rat plasma, intragastric administration) of 4.4 h. The AUMC [3] was 230.2 μg/mL · h, the “AUMC(0-24)” value [3] was 183.0 μg/mL · h and the k [3] was 0.1573 h⁻¹. The t1/2 [3] was 4.406 h, the AUMC [4] was 31.95 μg/mL · h and the “AUMC(0-24)” value [4] was 22.23 μg/mL · h. The k [4] was 0.1063 h⁻¹.
